Assay results reported in article PMC11858513, “Antibiofilm Activities of Tritrpticin Analogs Against Pathogenic Pseudomonas aeruginosa PA01 Strains” (Molecules, 2025).
≈ marks a conversion by molar mass, not a printed value. Where two headings read alike, the source gives them in different places. Non-standard residues stand in square brackets, D forms with d. Residues, ends and D or L forms follow the SMILES beside them. Orn = NCCC[C@H](N)C(=O)O; Dab = NCC[C@H](N)C(=O)O

How the values were obtained:
P. aeruginosa PAO1 GFP [1] = assay: MBIC, prevention of biofilm formation, GFP fluorescence method; format: cell-based, Pseudomonas aeruginosa
Method: (§1) Figure 1 The MIC (A), MBIC (B) and MBEC (C) values for the tritrpticin analog peptides were assessed against Pa PAO1 GFP. The MIC values were determined by measuring the absorbance of bacterial cells at 600 nm. The MBIC and MBEC values were determined by recording the fluorescence at 480 nm and 530 nm from the biofilms of GFP-expressing PAO1. Three biological replicates were run for each test sample, and the mean was calculated for the recorded absorption or fluorescence values. In the graphs, the error bars represent the standard deviation (±SD).
(§2) Figure 2 The MIC (A), MBIC (B) and MBEC (C) values for the tritrpticin-Lys derivative peptides were assessed against Pa PAO1 GFP. The MIC values were determined by measuring the absorbance of bacterial cells at 600 nm. The MBIC and MBEC values were determined by recording the fluorescence at 480 nm and 530 nm from the biofilms of GFP-expressing PAO1. Three replicates were run for each sample, the values were averaged and the error bars represent the standard deviation (±SD).
(§3) The methods to determine the MIC, MBIC and MBEC have been described in detail in our previous publication. The green fluorescent protein (GFP)-producing P. aeruginosa and S. aureus strains that were used in this work were also described in the earlier publication. Fluorescence detection was used as the main method to estimate the number of cells entrapped in the biofilm matrix. The methodology used for evaluation of the antibiofilm properties against an original Pseudomonas PA01 strain by crystal violet dye staining and the use of the Calgary biofilm device has been described elsewhere. The regular PA01 strain was provided by Dr. J. Harrison, Calgary. All measurements were carried out on an Eppendorf AF2200 plate reader. Every 96-well plate included controls for bacterial cell growth without peptide treatment and media alone. All measurements were carried out in triplicate, and the values in the figures represent the average and the error bars are standard deviation.

P. aeruginosa PAO1 GFP [2] = assay: MBEC, biofilm eradication, GFP fluorescence method; format: cell-based, Pseudomonas aeruginosa
Method: as §1, §2, §3

S. aureus GFP [3] = assay: MBIC, GFP fluorescence method; format: cell-based, Staphylococcus aureus; conditions: Table 4, Sa GFP, 10% TSB and 0.1% glucose, mean of three biological replicates
Method: as §1, with “3” for “1”, “Sa” for “Pa PAO1”, “Sa.” for “PAO1.”
as §3

S. aureus GFP [4] = assay: MIC against planktonic cells, absorbance at 600 nm; format: cell-based, Staphylococcus aureus; conditions: Table 4; Sa GFP, 10% TSB and 0.1% glucose; absorbance 600 nm; mean of three biological replicates
Method: as §1, with “3” for “1”, “Sa” for “Pa PAO1”, “Sa.” for “PAO1.”
as §3

P. aeruginosa PAO1 [5] = format: cell-based, Pseudomonas aeruginosa; conditions: Table 5; PAO1, 1x BM2; biofilms on pegs, cells plated and counted; three biological replicates
Method: (§4) We note the close agreement with the MBIC and MBEC values determined by the fluorescence and CV methods, similar to what we found in our previous work for an S. aureus MRSA strain [23]. We also re-evaluated the MBEC values that are measured using the Calgary biofilm device (CBD), where biofilms form on pegs, rather than at the bottom of the 96-well plates. […] In particular, we find that the single Pro9Ala Tritrp-P9A-substituted version has better MIC, MBIC and MBEC activities than the parent peptide as well as the Tritrp-P59A analog with both prolines substituted to Ala.
Figure 5 The MBEC values for the peptides were assessed against P. aeruginosa PAO1 in the presence of 1× BM2 medium. The eradication of biofilm cells was determined for the peptides using the counting of biofilm cells formed by Pa PAO1. Three biological replicates were run for each test sample, and the mean was calculated for counted cell values. Data points with error bars indicate the standard deviation (±SD).
as §3

S. aureus GFP [6] = format: cell-based, Staphylococcus aureus; conditions: Table 4; Sa GFP; lowest concentration of peptide with no bacterial growth seen on the spot agar plate
Source text: as §3

P. aeruginosa PAO1 GFP [7] = assay: MIC against planktonic cells, absorbance at 600 nm; format: cell-based, Pseudomonas aeruginosa; conditions: absorbance 600 nm
Method: as §1, §2, §3

P. aeruginosa PAO1 [8] = format: cell-based
Method: as §4
(§5) Figure 4 The MIC (A), MBIC (B) and MBRC (C) values for the peptides were assessed against P. aeruginosa PAO1 in the presence of 1× BM2. The inhibition of planktonic cells, the inhibition of biofilm cells and the reduction in biofilm cells were determined for the peptides by recording of the planktonic cells at 600 nm and quantification of biofilms formed by Pa PAO1 using crystal violet at 595 nm, respectively. Three biological replicates were run for each test sample, and the mean was calculated for the recorded absorption values. Data points with error bars indicate the standard deviation (±SD).
(§6) Figure 6 The MIC (A), MBIC (B) and MBEC (C) values for the tritrpticin-Lys derivatives against P. aeruginosa PAO1 were assessed by the crystal violet (CV) assay for the measurement of inhibition of biofilm formation and eradication of biofilm cells, respectively. The biofilm cells were rinsed, stained with 0.1% crystal violet for 15 min and then rinsed again. The CV was released from biofilm cells by the addition of 95% ethanol and quantified by reading on a spectrometer at 595 nm. Three replicates were run for each sample, the values were averaged and the error bars represent the standard deviation (±SD).
as §3

S. aureus GFP [9] = assay: MBEC, GFP fluorescence method; format: cell-based, Staphylococcus aureus; conditions: Table 4, Sa GFP, 10% TSB and 0.1% glucose, mean of three biological replicates
Method: as §1, with “3” for “1”, “Sa” for “Pa PAO1”, “Sa.” for “PAO1.”
as §3

P. aeruginosa PAO1 [10] = format: cell-based, Pseudomonas aeruginosa; conditions: Table 6, Tritrp-Lys derivatives; PAO1, BM2; absorbance 600 nm; three replicates; unit not given
Method: as §5, §6, §3

[11] = Table 2, BM2 medium, mean of three biological replicates
[12] = Table 5, PAO1, 1x BM2, crystal violet at 595 nm, mean of three biological replicates
[13] = Table 5, minimum biofilm reduction concentration, PAO1, 1x BM2, crystal violet at 595 nm, mean of three biological replicates
[14] = Table 3, Tritrp-Lys derivatives, BM2 medium, three replicates
[15] = Table 6, Tritrp-Lys derivatives, PAO1, BM2, 0.1% crystal violet 15 min, released with 95% ethanol, 595 nm, three replicates, unit not given

Compound | MBIC at 488 and 530 nm LD50 (P. aeruginosa PAO1 GFP [1]; [11]) [µmol/L] | MBIC at 488 and 530 nm LD90 (P. aeruginosa PAO1 GFP [1]; [11]) [µmol/L] | MBEC at 488 and 530 nm LD50 (P. aeruginosa PAO1 GFP [2]; [11]) [µmol/L] | MBEC at 488 and 530 nm LD90 (P. aeruginosa PAO1 GFP [2]; [11]) [µmol/L] | MBIC at 488 and 530 nm LD50 (S. aureus GFP [3]) [µmol/L] | MBIC at 488 and 530 nm LD90 (S. aureus GFP [3]) [µmol/L] | MIC at 600 nm LD50 (S. aureus GFP [4]) [µM] | MIC at 600 nm LD90 (S. aureus GFP [4]) [µM] | MBC Agar Plate (S. aureus GFP [6]) [µM] | MIC at 600 nm LD50 (P. aeruginosa PAO1 GFP [7]; [11]) [µM] | MIC at 600 nm LD90 (P. aeruginosa PAO1 GFP [7]; [11]) [µM] | MBEC at 488 and 530 nm LD50 (S. aureus GFP [9]) [µmol/L] | MBEC at 488 and 530 nm LD90 (S. aureus GFP [9]) [µmol/L] | MBIC at 488 and 530 nm LD50 (P. aeruginosa PAO1 GFP [1]; [14]) [µmol/L] | MBIC at 488 and 530 nm LD90 (P. aeruginosa PAO1 GFP [1]; [14]) [µmol/L] | MBEC at 488 and 530 nm LD50 (P. aeruginosa PAO1 GFP [2]; [14]) [µmol/L] | MBEC at 488 and 530 nm LD90 (P. aeruginosa PAO1 GFP [2]; [14]) [µmol/L] | MIC at 600 nm LD50 (P. aeruginosa PAO1 [10]) | MIC at 600 nm LD90 (P. aeruginosa PAO1 [10]) | MIC at 600 nm LD50 (P. aeruginosa PAO1 GFP [7]; [14]) [µM] | other results
CC[C@H](C)[C@H](N)C(=O)N[C@@H](CC(C)C)C(=O)N1CCC[C@H]1C(=O)N[C@@H](Cc1c[nH]c2ccccc12)C(=O)N[C@@H](CCCCN)C(=O)N[C@@H](Cc1c[nH]c2ccccc12)C(=O)N1CCC[C@H]1C(=O)N[C@@H](Cc1c[nH]c2ccccc12)C(=O)N[C@@H](Cc1c[nH]c2ccccc12)C(=O)N1CCC[C@H]1C(=O)N[C@@H](Cc1c[nH]c2ccccc12)C(=O)N[C@@H](CCCNC(=N)N)C(=O)N[C@@H](CCCNC(=N)N)C(N)=O [Indolicidin, reference compound] | 8 | 32 | 32 | >128 | 4 | 8 | 4 (≈ 7.63 µg/mL) | 8 (≈ 15.3 µg/mL) | 8 (≈ 15.3 µg/mL) | 8 (≈ 15.3 µg/mL) | 32 (≈ 61 µg/mL) | 2 | 8 |  |  |  |  |  |  |  | MBEC from Calgary Biofilm Device (CBD) LD50 (P. aeruginosa PAO1 [5]): 128 µmol/L; MBEC from Calgary Biofilm Device (CBD) LD90 (P. aeruginosa PAO1 [5]): 128 µmol/L; MBIC (CV at 595 nm) LD50 (P. aeruginosa PAO1 [8]; [12]): 32 µmol/L; MBIC (CV at 595 nm) LD90 (P. aeruginosa PAO1 [8]; [12]): 32 µmol/L; MBRC (CV at 595 nm) LD50 (P. aeruginosa PAO1 [8]; [13]): 64 µmol/L; MBRC (CV at 595 nm) LD90 (P. aeruginosa PAO1 [8]; [13]): 64 µmol/L
N=C(N)NCCC[C@H](NC(=O)[C@H](CCCNC(=N)N)NC(=O)[C@@H](N)CCCNC(=N)N)C(=O)N[C@@H](Cc1c[nH]c2ccccc12)C(=O)N[C@@H](Cc1c[nH]c2ccccc12)C(=O)N[C@@H](Cc1c[nH]c2ccccc12)C(N)=O [RRRWWW-NH2] (H-RRRWWW-NH2) | 16 | 128 | 64 | >128 | 1 | 1 | 1 (≈ 1.04 µg/mL) | 1 (≈ 1.04 µg/mL) | 4 (≈ 4.18 µg/mL) | 32 (≈ 33.4 µg/mL) | 128 (≈ 134 µg/mL) | 0.5 | 4 |  |  |  |  |  |  |  | 
N=C(N)NCCC[C@H](NC(=O)[C@H](Cc1c[nH]c2ccccc12)NC(=O)[C@H](Cc1c[nH]c2ccccc12)NC(=O)[C@H](Cc1c[nH]c2ccccc12)NC(=O)[C@H](CCCNC(=N)N)NC(=O)[C@@H](N)CCCNC(=N)N)C(N)=O [RRWWWR-NH2] (H-RRWWWR-NH2) | 16 | 128 | 128 | >128 | 1 | 1 | 1 (≈ 1.04 µg/mL) | 1 (≈ 1.04 µg/mL) | 4 (≈ 4.18 µg/mL) | 64 (≈ 66.8 µg/mL) | 128 (≈ 134 µg/mL) | 1 | 4 |  |  |  |  |  |  |  | 
CC(C)C[C@H](NC(=O)[C@H](Cc1ccccc1)NC(=O)[C@@H]1CCCN1C(=O)[C@H](Cc1c[nH]c2ccccc12)NC(=O)[C@H](Cc1c[nH]c2ccccc12)NC(=O)[C@H](Cc1c[nH]c2ccccc12)NC(=O)[C@@H]1CCCN1C(=O)[C@H](Cc1ccccc1)NC(=O)[C@H](CCN)NC(=O)[C@H](CCN)NC(=O)[C@@H](N)C(C)C)C(=O)N[C@@H](CCN)C(=O)N[C@@H](CCN)C(N)=O [Tritrp-Dab] (H-V[Dab][Dab]FPWWWPFL[Dab][Dab]-NH2; N-terminus assumed) |  |  |  |  |  |  |  |  |  |  |  |  |  | 8 | 16 | 16 | 64 | 16 | 16 | 8 (≈ 13.4 µg/mL) | MIC at 600 nm LD90 (P. aeruginosa PAO1 GFP [7]; [14]): 16 µM (≈ 26.8 µg/mL); MBEC (CV at 595 nm) LD90 (P. aeruginosa PAO1 [8]; [15]): 64; MBIC (CV at 595 nm) LD90 (P. aeruginosa PAO1 [8]; [15]): 16
CC(C)C[C@H](NC(=O)[C@H](Cc1ccccc1)NC(=O)[C@@H]1CCCN1C(=O)[C@H](Cc1c[nH]c2ccccc12)NC(=O)[C@H](Cc1c[nH]c2ccccc12)NC(=O)[C@H](Cc1c[nH]c2ccccc12)NC(=O)[C@@H]1CCCN1C(=O)[C@H](Cc1ccccc1)NC(=O)[C@H](CCCN)NC(=O)[C@H](CCCN)NC(=O)[C@@H](N)C(C)C)C(=O)N[C@@H](CCCN)C(=O)N[C@@H](CCCN)C(N)=O [Tritrp-Orn] (H-V[Orn][Orn]FPWWWPFL[Orn][Orn]-NH2; N-terminus assumed) |  |  |  |  |  |  |  |  |  |  |  |  |  | 16 | 16 | 64 | 128 | 16 | 16 | 16 (≈ 27.7 µg/mL) | MIC at 600 nm LD90 (P. aeruginosa PAO1 GFP [7]; [14]): 16 µM (≈ 27.7 µg/mL); MBEC (CV at 595 nm) LD90 (P. aeruginosa PAO1 [8]; [15]): 128; MBIC (CV at 595 nm) LD90 (P. aeruginosa PAO1 [8]; [15]): 32
